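Method: 48-hour compound exposure of cells in 96-well plates, five concentrations, linear interpolation of endpoints. GI50: concentration for 50% inhibition of growth.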 Calls of active or inactive are those of the source. Cut-off read from the data, not from the text of the source: active = GI50 up to about 1.1 µM and inactive = higher.
Columns and labels:
Assay in all cases: NCI anticancer screen, dose series, 48 h
HCT-116 = system: HCT-116
HT-29 = system: HT-29
SF-268 = system: SF-268
NCI-H226 = system: NCI-H226
DMS-114 = system: DMS-114
XF498 = system: XF498
CAKI-1 = system: CAKI-1
HCT-15 = system: HCT-15
ACHN = system: ACHN
UACC-62 = system: UACC-62
NCI-H23 = system: NCI-H23
A549 = system: A549
HOP-92 = system: HOP-92
RXF 393 = system: RXF 393
IGROV-1 = system: IGROV-1
PC-3 = system: PC-3
MDA-MB-435 = system: MDA-MB-435
DU-145 = system: DU-145
Hs-578T = system: Hs-578T
MDA-MB-231 = system: MDA-MB-231

| Compound | GI50 (HCT-116) | GI50 (HT-29) | GI50 (SF-268) | GI50 (NCI-H226) | GI50 (DMS-114) | GI50 (XF498) | GI50 (CAKI-1) | GI50 (HCT-15) | GI50 (ACHN) | GI50 (UACC-62) | GI50 (NCI-H23) | GI50 (A549) | GI50 (HOP-92) | GI50 (RXF 393) | GI50 (IGROV-1) | GI50 (PC-3) | GI50 (MDA-MB-435) | GI50 (DU-145) | GI50 (Hs-578T) | GI50 (MDA-MB-231) |
| --- | --- | --- | --- | --- | --- | --- | --- | --- | --- | --- | --- | --- | --- | --- | --- | --- | --- | --- | --- | --- |
| COC(=O)C(/C(=N/NC(N)=O)C(=O)Nc1c(C)cccc1C(C)(C)C)c1nc2ccc(Cl)cc2nc1O (stereo not given) | > 100 µM (inactive) | > 100 µM (inactive) | > 100 µM (inactive) | > 100 µM (inactive) | > 100 µM (inactive) | > 100 µM (inactive) | > 100 µM (inactive) | > 100 µM | > 100 µM (inactive) | > 100 µM (inactive) | > 100 µM (inactive) | > 100 µM (inactive) | > 100 µM (inactive) | > 100 µM (inactive) | > 100 µM (inactive) |  |  |  |  |  |
| N#CC(Cl)CS(=O)(=O)c1ccccc1 (stereo not given) | 4.34 µM (inactive) | 7.66 µM (inactive) | 11 µM (inactive) | 22.1 µM (inactive) | 4.11 µM (inactive) | 2.62 µM (inactive) | 3.06 µM (inactive) | 2.14 µM | 4.41 µM (inactive) | 12.2 µM (inactive) | 16.3 µM (inactive) | 20.1 µM (inactive) | 2.02 µM (inactive) | 2.35 µM (inactive) | 16.9 µM (inactive) | 17.5 µM (inactive) | 17.1 µM (inactive) | 17.5 µM (inactive) | 11.8 µM (inactive) | 19.7 µM (inactive) |
| CSc1nc2nccnc2c(=O)[nH]1 | > 100 µM (inactive) | > 100 µM (inactive) | > 100 µM (inactive) | > 100 µM (inactive) | > 100 µM (inactive) | > 100 µM (inactive) | > 100 µM (inactive) | > 100 µM | > 100 µM (inactive) | > 100 µM (inactive) | > 100 µM (inactive) | > 100 µM (inactive) | 96.2 µM (inactive) | > 100 µM (inactive) | > 100 µM (inactive) |  |  |  |  |  |
| CC1CCC2(NC1)OC1CC3[C@@H]4CC=C5C=CCC[C@]5(C)C4CC[C@]3(C)C1C2C (stereo not given in full) | 17.7 µM (inactive) | 15.1 µM (inactive) | 28.6 µM (inactive) | 35.2 µM (inactive) | 20.8 µM (inactive) | 17.6 µM (inactive) | 26.3 µM (inactive) | 21 µM | 22.9 µM (inactive) | 21 µM (inactive) | 32.3 µM (inactive) | 24 µM (inactive) | 19.7 µM (inactive) | 18.8 µM (inactive) | 30.3 µM (inactive) |  |  |  |  |  |
| COc1ccc(-c2cc(=O)c3c(O)cccc3o2)c(OC)c1OC | 38.7 µM (inactive) | > 100 µM (inactive) | > 100 µM (inactive) | > 100 µM (inactive) | 18.6 µM (inactive) | 65.6 µM (inactive) | 97.3 µM (inactive) | 10.1 µM | 61 µM (inactive) | > 100 µM (inactive) | > 100 µM (inactive) | 26.6 µM (inactive) | 19.9 µM (inactive) | 20.2 µM (inactive) | > 100 µM (inactive) |  |  |  |  |  |
| Oc1cc(-c2cccc(Cl)c2)nc2cc3c(cc12)OCO3 |  | 2 µM (inactive) |  |  | 0.296 µM (active) | 1.4 µM (inactive) |  | 0.269 µM | 0.402 µM (active) | 0.201 µM (active) | 0.951 µM (active) | 2.47 µM (inactive) | 0.951 µM (active) |  | 0.151 µM (active) | 0.308 µM (active) | 0.0377 µM (active) | 0.284 µM (active) | 0.255 µM (active) | 2.44 µM (inactive) |
| c1ccc(COc2ccc3[nH]c4c5c6ccccc6nc-5c[nH]c4c3c2)cc1 | 12.2 µM (inactive) | 5.47 µM (inactive) | 17 µM (inactive) | 15.4 µM (inactive) | 16.6 µM (inactive) | 13.7 µM (inactive) | 22 µM (inactive) | 4.3 µM | 17.5 µM (inactive) | 19.6 µM (inactive) | 18.3 µM (inactive) | 17.8 µM (inactive) | 15.8 µM (inactive) | 11.2 µM (inactive) | 13.8 µM (inactive) |  |  |  |  |  |
